# Values quoted from earlier work as cited in patent US8716182B2, “Liquid aqueous crop protection formulations” (BASF SE, priority 2008, dated 2014).
# Conditions: miscible means fully miscible with water
row,Structure (SMILES),solubility in water at 20° C.
1,"O=C1CCCO1 [γ-butryrolacton, γ-butyrolactone]",(miscible)
2,"COCC(C)OC(C)=O (stereo not shown) [Arcosolv ® PMA, 1-methoxy-2-propanol acetate]",acetate)(400 g/l)
3,"OCCOc1ccccc1 [Agrisol PX401, 2-phenoxyethanol]",(24 g/l)
4,"CCCOC(=O)C(C)O (stereo not shown) [Purasolv ® NPL, n-propyl lactate]",(miscible)
5,OCC1CCCO1 (stereo not shown) [tetrahydrofurfuryl alcohol],(miscible)
6,"C[S+](C)[O-] [DMSO, dimethyl sulfoxide]",(miscible)
7,CC(=O)OCC(COC(C)=O)OC(C)=O [triacetin],(64 g/l)
